From patent publication US9809593B2, “Use of tetramic acid derivatives as nematicides” (Syngenta Participations AG, priority 2013, dated 2017)

What was measured:
Format in all cases: in vivo
[1] = test system: Meloidogyne incognita (RKNi); assay: Pot trial: foliar spray in cotton against root-knot nematodes; conditions: for performance in comparison to prior art tetramic acid compound spirotetramat: foliar 100 g/ha
From the text: POT TRIALS: Foliar spray in Cotton against nematodes Meloidogyne incognita (RKNi) using
12 1-L Clay pots were used per treatment. Cotton: Fibre Max 966 seeds were planted into pots and allowed to germinate and grow into young plants. The pots were artificially infested with nematodes (RKNi) 2 days after treatment.
APPLICATION: Compounds A and B and comparison Spirotetramat were sprayed as a normal foliar spray with hollow cone nozzles directed onto the plants. The compounds A, B and spirotetramat used were formulated as a suspension concentrate formulation at a dose rate of 100 g/ha. The compounds were diluted to a spray volume of approx […], which was used on the young plants. The treatment was applied when the plants had at least 2 true leaves.
Industry comparison Abamectin as a seed treatment was also included in the trials as a comparison. AVICTA® 500 FS from Syngenta AG was used at a rate of 500 g/L as a flowable concentrate (FS) formulation and applied to the seeds as a slurry to provide a rate of 0.15 mg of active ingredient per seed.
ASSESSMENT: Plants were removed 2 days after foliar spray treatment to assess penetration of the nematode in the roots with a dyeing method. Root galling/cysts were assessed according to standard practice.

[2] = test system: Heterodera schachtii Schmidt (SBCN); assay: Pot trial: seed treatment and foliar spray in sugar beets, cysts per root system; conditions: sugar beet, 25 days after inoculation
Method: POT TRIALS: Seed treatments and Foliar spray in sugar beets (Beta Vulgaris cv Impulse) against root nematodes Heterodera schachtii Schmidt (SBCN)
8×350 ml pots were used per treatment containing 350 ml soil (70% drench soil and 30% sand). 1 Seed per pot were planted into pot soil 0.5 cm deep and allowed to germinate and grow into young plants. Plants were kept under constant conditions of 25° C. during the day and 23° C. during the night with a humidity of 50-60% with 14 hour light periods. The pots were artificially infested with nematodes (SBCN) 7 days after sowing. For inoculation, 3 holes are drilled into the soil and 2 ml suspension of the nematodes per hole are applied.
(§1) APPLICATION: Compounds B and comparison Spirotetramat were sprayed as a normal foliar spray with hollow cone nozzles directed onto the plants. The compounds B and Spirotetramat used were formulated as a suspension concentrate formulation at a dose rate of 100 g/ha. The first foliar spray was applied 14 days after sowing (i.e. 7 days after inoculation). A second foliar spray was carried out 21 days after sowing (i.e. 14 days after inoculation).
Abamectin was used as a seed treatment. AVICTA® 400 FS from Syngenta AG was used at a rate of 400 g/L as a flowable concentrate (FS) formulation and applied to the seeds as a slurry to provide a rate of 0.6 mg and 1 mg of active ingredient per seed.
ASSESSMENT: Sugar beet plants were harvested 25 days after inoculation. Sugar beet root and shoot weights were assessed according to standard practice. Number of cysts per root system and as a function of root weight were assessed.

[3] = test system: Heterodera schachtii Schmidt (SBCN); assay: Pot trial: seed treatment and foliar spray in sugar beets, tuber weight; conditions: sugar beet, n = 8-10, harvest after 4 months
From the text: POT TRIALS: Seed treatments and Foliar spray in sugar beets (Beta Vulgaris cv Impulse) against root nematodes Heterodera schachtii Schmidt (SBCN) (origin Münster, Germany)
15 7-L pots were used per treatment containing 7-L soil with an organic matter content of 2% (drench soil+sand). Seeds were planted into pot soil 1 cm deep and allowed to germinate and grow into young plants in a polytunnel. During the winter months, the pots were placed in a greenhouse. The pots were artificially infested with nematodes (SBCN) when preparing the soil for each pot and just before planting.
as §1, with “A” for “B”, “sowing.” for “sowing (i.e. 7 days after inoculation).”, “3 weeks later.” for “21 days after sowing (i.e. 14 days after inoculation).”
Abamectin was used as a seed treatment. AVICTA® 500 FS from Syngenta AG was used at a rate of 500 g/L as a flowable concentrate (FS) formulation and applied to the seeds as a slurry to provide a rate of 0.6 mg of active ingredient per seed.
ASSESSMENT: Sugar beet plants were harvested after 4 months according to the prevailing temperatures and weather conditions. Sugar beet tuber weights were assessed according to standard practice.

[4] = foliar 100 g/ha at BBCH 14, artificial infestation 2 days after foliar spray
[5] = foliar 100 g/ha, first application +14 days after sowing
[6] = seed treatment 0.15 mg/seed at BBCH 00, artificial infestation at crop stage BBCH 14

## CCOC(=O)OC1=C(c2c(C)cc(Cl)cc2C)C(=O)N(C)C12CCN(OC)CC2 [Compound B]
[1]
  performance in comparison to prior art tetramic acid compound spirotetramat: outperformed spirotetramat
[1]; [4]
  % root length in cm compared to check (= 100%): 213%
  Number of root galls per plant: 0.33
[2]; Compound B 100 g/ha foliar
  Efficacy in % of cyst nematodes per root system: 12%

## CCOC(=O)OC1=C(c2c(C)cc(Cl)cc2C)C(=O)NC12CCN(OC)CC2 [Compound A]
[1]
  performance in comparison to prior art tetramic acid compound spirotetramat: outperformed spirotetramat
[1]; [4]
  % root length in cm compared to check (= 100%): 204%
  Number of root galls per plant: 1
[3]; [5]
  Mean tuber weight relative to inoculated check (%), Observed %: 17.0%

## Abamectin
[1]; [6]
  % root length in cm compared to check (= 100%): 211%
  Number of root galls per plant: 0.33
[3]; seed treatment 0.6 mg/seed at sowing
  Mean tuber weight relative to inoculated check (%), Observed %: 6.4%
[2]; Abamectin 0.6 mg/seed seed treatment
  Efficacy in % of cyst nematodes per root system: 42%
[2]; Abamectin 1 mg/seed seed treatment
  Efficacy in % of cyst nematodes per root system: 60%

## CCOC(=O)OC1=C(c2cc(C)ccc2C)C(=O)N[C@]12CC[C@@H](OC)CC2 [Spirotetramat]
[1]; [4]
  % root length in cm compared to check (= 100%): 100%
  Number of root galls per plant: 5.83
[3]; [5]
  Mean tuber weight relative to inoculated check (%), Observed %: 30.0%
